Experimental data from ChEMBL document CHEMBL1275539 (2008).
Values after ≈ are worked out from the molar mass of the structure shown.

Key:
Assay type in all cases: functional
Streptococcus pneumoniae [1] = test: Antibacterial activity against penicillin-nonsusceptible Streptococcus pneumoniae isolate by agar dilution method
Streptococcus pneumoniae [2] = test: Antibacterial activity against penicillin-nonsusceptible Streptococcus pneumoniae assessed as percent susceptible isolates by agar dilution method
Streptococcus pneumoniae [3] = test: Antibacterial activity against amoxicillin-intermediate Streptococcus pneumoniae isolate by agar dilution method
Streptococcus pneumoniae [4] = test: Antibacterial activity against amoxicillin-intermediate Streptococcus pneumoniae assessed as percent susceptible isolates by agar dilution method
Streptococcus pneumoniae [5] = test: Antibacterial activity against amoxicillin-resistant Streptococcus pneumoniae isolate by agar dilution method
Streptococcus pneumoniae [6] = test: Antibacterial activity against cefotaxime-intermediate Streptococcus pneumoniae isolate by agar dilution method
Streptococcus pneumoniae [7] = test: Antibacterial activity against cefotaxime-intermediate Streptococcus pneumoniae assessed as percent susceptible isolates by agar dilution method
Streptococcus pneumoniae [8] = test: Antibacterial activity against cefotaxime-resistant Streptococcus pneumoniae isolate by agar dilution method
Streptococcus pneumoniae [9] = test: Antibacterial activity against cefotaxime-resistant Streptococcus pneumoniae assessed as percent susceptible isolates by agar dilution method
Streptococcus pneumoniae [10] = test: Antibacterial activity against erythromycin-resistant Streptococcus pneumoniae isolate by agar dilution method
Streptococcus pneumoniae [11] = test: Antibacterial activity against erythromycin-resistant Streptococcus pneumoniae assessed as percent susceptible isolates by agar dilution method
Streptococcus pneumoniae [12] = test: Antibacterial activity against levofloxacin-resistant Streptococcus pneumoniae isolate by agar dilution method
Streptococcus pneumoniae [13] = test: Antibacterial activity against levofloxacin-resistant Streptococcus pneumoniae assessed as percent susceptible isolates by agar dilution method
Streptococcus pneumoniae [14] = test: Antibacterial activity against penicillin-susceptible Streptococcus pneumoniae isolate by agar dilution method
Streptococcus pneumoniae [15] = test: Antibacterial activity against penicillin-susceptible Streptococcus pneumoniae assessed as percent susceptible isolates by agar dilution method
Streptococcus pneumoniae [16] = test: Antibacterial activity against amoxicillin-resistant Streptococcus pneumoniae assessed as percent susceptible isolates by agar dilution method

| SMILES | MIC50 (Streptococcus pneumoniae [1]) [µg/mL] | MIC90 (Streptococcus pneumoniae [1]) [µg/mL] | Activity (Streptococcus pneumoniae [2]) [%] | MIC50 (Streptococcus pneumoniae [3]) [µg/mL] | MIC90 (Streptococcus pneumoniae [3]) [µg/mL] | Activity (Streptococcus pneumoniae [4]) [%] | MIC50 (Streptococcus pneumoniae [5]) [µg/mL] | MIC90 (Streptococcus pneumoniae [5]) [µg/mL] | MIC50 (Streptococcus pneumoniae [6]) [µg/mL] | MIC90 (Streptococcus pneumoniae [6]) [µg/mL] | Activity (Streptococcus pneumoniae [7]) [%] | MIC50 (Streptococcus pneumoniae [8]) [µg/mL] | MIC90 (Streptococcus pneumoniae [8]) [µg/mL] | MIC50 (Streptococcus pneumoniae [10]) [µg/mL] | MIC90 (Streptococcus pneumoniae [10]) [µg/mL] | Activity (Streptococcus pneumoniae [11]) [%] | MIC50 (Streptococcus pneumoniae [12]) [µg/mL] | MIC90 (Streptococcus pneumoniae [12]) [µg/mL] | MIC50 (Streptococcus pneumoniae [14]) [µg/mL] | MIC90 (Streptococcus pneumoniae [14]) [µg/mL] | other results |
| --- | --- | --- | --- | --- | --- | --- | --- | --- | --- | --- | --- | --- | --- | --- | --- | --- | --- | --- | --- | --- | --- |
| CC1(C)S[C@@H]2[C@H](NC(=O)[C@H](N)c3ccc(O)cc3)C(=O)N2[C@H]1C(=O)O [AMOXICILLIN] | 8 (≈ 21.9 µM) | ≥ 16 | 13.3 | 4 (≈ 10.9 µM) | 4 (≈ 10.9 µM) | 0 | 8 (≈ 21.9 µM) | 16 (≈ 43.8 µM) | 4 (≈ 10.9 µM) | 16 (≈ 43.8 µM) | 30.6 | 8 (≈ 21.9 µM) | 16 (≈ 43.8 µM) | 2 (≈ 5.47 µM) | 8 (≈ 21.9 µM) | 62.2 | ≤ 0.06 | 8 (≈ 21.9 µM) | 2 (≈ 5.47 µM) | 8 (≈ 21.9 µM) | Activity (Streptococcus pneumoniae [9]): 6.3%; Activity (Streptococcus pneumoniae [13]): 73.7%; Activity (Streptococcus pneumoniae [15]): 66.7% |
| CO/N=C(\C(=O)N[C@@H]1C(=O)N2C(C(=O)O)=C(COC(C)=O)CS[C@H]12)c1csc(N)n1 [CEFOTAXIME] | 2 (≈ 4.39 µM) | 4 (≈ 8.78 µM) | 25 | 1 (≈ 2.2 µM) | 2 (≈ 4.39 µM) | 62.4 | 2 (≈ 4.39 µM) | 2 (≈ 4.39 µM) | 2 (≈ 4.39 µM) | 2 (≈ 4.39 µM) | 0 | 4 (≈ 8.78 µM) | 8 (≈ 17.6 µM) | 1 (≈ 2.2 µM) | 2 (≈ 4.39 µM) | 77 | 0.06 (≈ 0.132 µM) | 1 (≈ 2.2 µM) | 1 (≈ 2.2 µM) | 2 (≈ 4.39 µM) | Activity (Streptococcus pneumoniae [16]): 49.7%; Activity (Streptococcus pneumoniae [15]): 80.7% |
| CO/N=C(\C(=O)N[C@@H]1C(=O)N2C(C(=O)O)=C(COC(N)=O)CS[C@H]12)c1ccco1 [CEFUROXIME] | 8 (≈ 18.9 µM) | 16 (≈ 37.7 µM) | 0 | 4 (≈ 9.43 µM) | 16 (≈ 37.7 µM) | 0 | 8 (≈ 18.9 µM) | 16 (≈ 37.7 µM) | 8 (≈ 18.9 µM) | 16 (≈ 37.7 µM) | 0 | 16 (≈ 37.7 µM) | ≥ 32 | 4 (≈ 9.43 µM) | 8 (≈ 18.9 µM) | 26.8 | 0.25 (≈ 0.589 µM) | 8 (≈ 18.9 µM) | 4 (≈ 9.43 µM) | 8 (≈ 18.9 µM) | Activity (Streptococcus pneumoniae [13]): 55.3%; Activity (Streptococcus pneumoniae [15]): 31.6% |
| C[C@H]1COc2c(N3CCN(C)CC3)c(F)cc3c(=O)c(C(=O)O)cn1c23.C[C@H]1COc2c(N3CCN(C)CC3)c(F)cc3c(=O)c(C(=O)O)cn1c23.O [LEVOFLOXACIN] | ≤ 1 | ≤ 1 | 95 | ≤ 1 | 16 |  | < 1 | 16 | ≤ 1 | 1 | 97.2 |  | 1 |  | 16 | 72 | 16 | ≥ 32 |  |  | Activity (Streptococcus pneumoniae [16]): 86.7%; Activity (Streptococcus pneumoniae [9]): 93.8%; Activity (Streptococcus pneumoniae [13]): 0% |
| CC1(C)S[C@@H]2[C@H](NC(=O)Cc3ccccc3)C(=O)N2[C@H]1C(=O)O [PENICILLIN G] | 4 (≈ 12 µM) | 4 (≈ 12 µM) | 0 | 2 (≈ 5.98 µM) | 2 (≈ 5.98 µM) | 94.1 | 2 (≈ 5.98 µM) | 4 (≈ 12 µM) | 2 (≈ 5.98 µM) | 4 (≈ 12 µM) | 76.4 | 4 (≈ 12 µM) | 8 (≈ 23.9 µM) | 1 (≈ 2.99 µM) | 2 (≈ 5.98 µM) | 93.5 | 0.06 (≈ 0.179 µM) | 2 (≈ 5.98 µM) | 1 (≈ 2.99 µM) | 2 (≈ 5.98 µM) | Activity (Streptococcus pneumoniae [16]): 71.5%; Activity (Streptococcus pneumoniae [9]): 31.3%; Activity (Streptococcus pneumoniae [13]): 98%; Activity (Streptococcus pneumoniae [15]): 100% |
| CO/N=C(\C(=O)N[C@@H]1C(=O)N2C(C(=O)O)=C(CSc3nc(=O)c(O)nn3C)CS[C@H]12)c1csc(N)n1 [CEFTRIAXONE] | 1 (≈ 1.8 µM) | 2 (≈ 3.61 µM) | 83.3 | 1 (≈ 1.8 µM) | 1 (≈ 1.8 µM) | 95.3 | 1 (≈ 1.8 µM) | 1 (≈ 1.8 µM) | 1 (≈ 1.8 µM) | 1 (≈ 1.8 µM) | 97.2 | 2 (≈ 3.61 µM) | 4 (≈ 7.21 µM) | 0.5 (≈ 0.902 µM) | 1 (≈ 1.8 µM) | 97.1 | 0.06 (≈ 0.108 µM) | 1 (≈ 1.8 µM) | 0.5 (≈ 0.902 µM) | 1 (≈ 1.8 µM) | Activity (Streptococcus pneumoniae [16]): 95.2%; Activity (Streptococcus pneumoniae [9]): 31.3%; Activity (Streptococcus pneumoniae [13]): 99.3%; Activity (Streptococcus pneumoniae [15]): 98.8% |
| CO/N=C(\C(=O)N[C@@H]1C(=O)N2C(C(=O)[O-])=C(C[N+]3(C)CCCC3)CS[C@H]12)c1csc(N)n1 | 2 (≈ 4.16 µM) | 4 (≈ 8.32 µM) | 8.3 | 2 (≈ 4.16 µM) | 2 (≈ 4.16 µM) | 40 | 2 (≈ 4.16 µM) | 8 (≈ 16.6 µM) | 2 (≈ 4.16 µM) | 2 (≈ 4.16 µM) | 29.9 | 2 (≈ 4.16 µM) | 4 (≈ 8.32 µM) | 1 (≈ 2.08 µM) | 2 (≈ 4.16 µM) | 64.9 | 0.25 (≈ 0.52 µM) | 2 (≈ 4.16 µM) | 1 (≈ 2.08 µM) | 2 (≈ 4.16 µM) | Activity (Streptococcus pneumoniae [16]): 16.4%; Activity (Streptococcus pneumoniae [9]): 12.5%; Activity (Streptococcus pneumoniae [13]): 82.9%; Activity (Streptococcus pneumoniae [15]): 66.4% |
| CC1(C)S[C@@H]2[C@H](NC(=O)[C@H](N)c3ccccc3)C(=O)N2[C@H]1C(=O)O [AMPICILLIN] | 8 (≈ 22.9 µM) | ≥ 16 |  | 4 (≈ 11.4 µM) | 8 (≈ 22.9 µM) |  | 8 (≈ 22.9 µM) |  | 8 (≈ 22.9 µM) | ≥ 16 |  | 8 (≈ 22.9 µM) |  | 4 (≈ 11.4 µM) | 8 (≈ 22.9 µM) |  | 0.12 (≈ 0.343 µM) | 8 (≈ 22.9 µM) | 2 (≈ 5.72 µM) | 8 (≈ 22.9 µM) |  |
| CC[C@H]1OC(=O)[C@H](C)[C@@H](O[C@H]2C[C@@](C)(OC)[C@@H](O)[C@H](C)O2)[C@H](C)[C@@H](O[C@@H]2O[C@H](C)C[C@H](N(C)C)[C@H]2O)[C@](C)(O)C[C@@H](C)C(=O)[C@H](C)[C@@H](O)[C@]1(C)O [ERYTHROMYCIN] | ≤ 0.12 | ≥ 32 | 63.3 | ≥ 32 | ≥ 32 | 30.6 | < 0.12 |  | 0.25 (≈ 0.341 µM) | ≥ 32 | 50 |  |  |  |  | 0 |  |  |  |  | Activity (Streptococcus pneumoniae [16]): 58.2%; Activity (Streptococcus pneumoniae [9]): 62.5%; Activity (Streptococcus pneumoniae [13]): 40.8% |
| CCO/N=C(\C(=O)N[C@@H]1C(=O)N2C(C(=O)[O-])=C(Sc3nc(-c4cc[n+](C)cc4)cs3)CS[C@H]12)c1nsc(NP(=O)(O)O)n1 [CEFTAROLINE FOSAMIL] | 0.12 (≈ 0.175 µM) | 0.25 (≈ 0.365 µM) |  | 0.12 (≈ 0.175 µM) | 0.25 (≈ 0.365 µM) |  | 0.12 (≈ 0.175 µM) | 0.25 (≈ 0.365 µM) | 0.12 (≈ 0.175 µM) | 0.25 (≈ 0.365 µM) |  | 0.25 (≈ 0.365 µM) | 0.25 (≈ 0.365 µM) | 0.12 (≈ 0.175 µM) | 0.25 (≈ 0.365 µM) |  | 0.03 (≈ 0.0438 µM) | 0.12 (≈ 0.175 µM) | 0.12 (≈ 0.175 µM) | 0.12 (≈ 0.175 µM) |  |
